Earlier results as cited in US20040241049A1, “Elastomeric tools for the fabrication of elastomeric devices and uses thereof” (priority 2003, published 2004).

System: α1-acid glycoprotein, αAGP
Settings: displacement of quinaldine red from αAGP; stated as known

Row | SMILES | inhibition of QR/αAGP binding (binder / non-binder)
1 | O=C(O)c1cc(I)cc(I)c1I [tri-idiobenzoic acid] | known inhibitors to QR/αAGP binding
2 | CC(C)Cc1ccc(C(C)C(=O)O)cc1 (stereo not drawn) [ibuprofen] | non-binder
3 | CN(C)CCCN1c2ccccc2Sc2ccc(Cl)cc21 [chloropromazine] | known inhibitors to QR/αAGP binding
